Experimental data taken from patent publication US20230365541A1, “INHIBITOR OF ENHANCER OF ZESTE HOMOLOGUE 2, AND USE THEREOF” (HAISCO PHARMACEUTICALS PTE. LTD., priority 2020, published 2023).

Assays:
[1] = mouse, in vivo, po, 20 mg/kg
Method: (§2) Experimental objective: a single dose of test compounds was administered to ICR mice intragastrically, and the concentrations of the test compounds in plasma of the mice were measured to evaluate pharmacokinetic characteristics of the test compounds in the mice.
(§3) Experimental animal: male ICR mice, about 20-25 g, 6-8 weeks old, 3 mice/compound, purchased from Chengdu Dossy Experimental Animals Co., Ltd.
(§4) Experimental method: on the day of the experiment, three ICR mice were randomly grouped according to their body weight. The animals were fasted with water available for 12 to 14 hours one day before the administration, and were fed 4 hours after the administration.
(§5) Before and after the administration, 0.03 mL of blood was taken from the orbit of the animals under isoflurane anesthesia, and placed in an EDTAK2 centrifuge tube. Centrifugation was carried out at 5000 rpm at 4° C. for 10 min, and the plasma was collected.
(§6) Time points for sample collection comprise 0 (before the administration), 15 min, 30 min, 1 h, 2 h, 4 h, 6 h, 8 h and 24 h.
(§7) Before analysis and detection, all samples were stored at −80° C.

[2] = test system: SU-DHL-6 cells; experiment: SU-DHL-6 cell proliferation test; type: cell-based, human; settings: incubated for 14 days
Method: SU-DHL-6 cells are human B-cell lymphoma cell lines purchased from ATCC and cultured under the following conditions: RPMI-1640+10% FBS+1% double antibody in a 37° C., 5% CO2 incubator. The cells were plated in a 12-well plate, with a cell concentration of 1×10^5 cells/mL. After the cells were plated, the compounds at different concentrations were added and cultured in a 37° C., 5% CO2 incubator. The cells were counted every 3-4 days (Countstar automated cell counter), centrifuged to remove the supernatant, re-diluted to 1×10^5 cells/mL and plated, and then the compounds at different concentrations were further added. After the mixture was incubated for 14 days and the cells were counted, the test was terminated, and the IC50 values were calculated by using the Origen9.2 software.

[3] = target: EZH2 (Homo sapiens (Human), UniProt Q15910); experiment: Test method for EZH2 enzyme activity; type: biochemical; settings: H3K27(21-44) and [3H]-SAM
In short: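 EZH2 (3 nM final) preincubated 15 min with compound in Tris-HCl pH 9.0 buffer, then H3K27(21-44) peptide and [3H]-SAM added (mixture at 200 nM and 100 nM) for 60 min at room temperature. Reaction quenched with cold SAM; flashplate scintillation read, inhibition normalized to controls and IC50 fitted.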

[4] = Pharmacokinetic experiment in mice (single intragastric dose, 20 mg/kg); settings: male, ICR, mouse, plasma, po
Method: as §2, §3, §4, §5, §6, §7

[5] = Pharmacokinetic experiment in monkeys; type: in vivo; settings: male, cynomolgus monkey, plasma
Method: Experimental animal: twelve cynomolgus monkeys, 2.4-5.9 kg, male, 3-5.5 years old, purchased from Suzhou Xishan Zhongke Laboratory Animal Co., Ltd, with the production license number of SCXK(SU) 2018-0001.
Before and after the administration, 1.0 mL of blood was taken from the front and rear limb veins of the animals, and placed in an EDTAK2 centrifuge tube. […] Before analysis and detection, all plasma samples were stored at −80° C.

[6] = target: CYP1A2 (Homo sapiens (Human), UniProt P05177); experiment: Cytochrome P450 isozyme inhibition experiment, CYP1A2; type: in vitro ADME; settings: human liver microsomes
Method: (§1) Experimental objective: the inhibitory effects of test compounds on the activity of human liver microsomal cytochrome P450 isozymes (CYP1A2, CYP2C9, CYP2C19, CYP2D6 and CYP3A4) were determined. […]

[7] = target: CYP2C9 (Homo sapiens (Human), UniProt P11712); experiment: Cytochrome P450 isozyme inhibition experiment, CYP2C9; type: in vitro ADME; settings: human liver microsomes
Method: as §1

[8] = target: CYP2C19 (Homo sapiens (Human), UniProt P33261); experiment: Cytochrome P450 isozyme inhibition experiment, CYP2C19; type: in vitro ADME; settings: human liver microsomes
Method: as §1

[9] = target: CYP2D6 (Homo sapiens (Human), UniProt P10635); experiment: Cytochrome P450 isozyme inhibition experiment, CYP2D6; type: in vitro ADME; settings: human liver microsomes
Method: as §1

[10] = target: CYP3A4 (Homo sapiens (Human), UniProt P08684); experiment: Cytochrome P450 isozyme inhibition experiment, CYP3A4; type: in vitro ADME; settings: human liver microsomes, CYP3A4-M
Method: as §1

[11] = Pharmacokinetic experiment in mice (intravenous 5 mg/kg or intragastric 30 mg/kg); type: in vivo; settings: for AUC: read-out: AUC; for C0: read-out: C0; for bioavailability: PO 30 mg/kg vs IV 5 mg/kg; for Tmax: read-out: Tmax
Method: The administration was performed according to table 5.
The concentrations of the compounds in EDTA-K2 anticoagulant plasma were determined by the LC-MS/MS method. The linear range of the standard curve of the compounds is 2-2000 ng/mL. After subjected to precipitating proteins with acetonitrile, the samples were analyzed by LC-MS/MS. The standard curve was subjected to a regression calculation using the weighted least square method (W=1/X^2), and quantified by calculating the ratio of test compound peak area to internal standard peak area.
• (1) except to the blank sample, 400 μL of internal standard working solution (Verapamil internal standard concentration in precipitant acetonitrile is 10.0 ng/mL) was added to a 1.5 mL centrifuge tube containing 30 μL of standard curve samples and quality control samples; • 200 μL of internal standard working solution (Verapamil internal standard concentration in precipitant acetonitrile is 10.0 ng/mL) was added to a 1.5 mL centrifuge tube containing 15 μL of unknown samples; • and 400 μL of acetonitrile was added to the blank sample; • (2) the mixture was mixed evenly for about 1 min in a vortex mixer; • (3) centrifugation was carried out at 10000 rpm at 4C for 10 mi; • (4) 175 μL of the supernatant was transferred to a new 96-well polypropylene plate, and then the plate was sealed and placed in a 10° C. sample tray for injection.

[12] = male, ICR, mouse, plasma, iv, 5 mg/kg, IV 5 mg/kg
[13] = male, ICR, mouse, plasma, po, 30 mg/kg, PO 30 mg/kg
[14] = male, ICR, mouse, plasma, po, 30 mg/kg
[15] = male, ICR, mouse, plasma, po, 30 mg/kg, PO 30 mg/kg, read-out: Cmax

EZH2, sequence (Q15910 other isoform, or with tags, fused parts or gaps isoform Q15910-2): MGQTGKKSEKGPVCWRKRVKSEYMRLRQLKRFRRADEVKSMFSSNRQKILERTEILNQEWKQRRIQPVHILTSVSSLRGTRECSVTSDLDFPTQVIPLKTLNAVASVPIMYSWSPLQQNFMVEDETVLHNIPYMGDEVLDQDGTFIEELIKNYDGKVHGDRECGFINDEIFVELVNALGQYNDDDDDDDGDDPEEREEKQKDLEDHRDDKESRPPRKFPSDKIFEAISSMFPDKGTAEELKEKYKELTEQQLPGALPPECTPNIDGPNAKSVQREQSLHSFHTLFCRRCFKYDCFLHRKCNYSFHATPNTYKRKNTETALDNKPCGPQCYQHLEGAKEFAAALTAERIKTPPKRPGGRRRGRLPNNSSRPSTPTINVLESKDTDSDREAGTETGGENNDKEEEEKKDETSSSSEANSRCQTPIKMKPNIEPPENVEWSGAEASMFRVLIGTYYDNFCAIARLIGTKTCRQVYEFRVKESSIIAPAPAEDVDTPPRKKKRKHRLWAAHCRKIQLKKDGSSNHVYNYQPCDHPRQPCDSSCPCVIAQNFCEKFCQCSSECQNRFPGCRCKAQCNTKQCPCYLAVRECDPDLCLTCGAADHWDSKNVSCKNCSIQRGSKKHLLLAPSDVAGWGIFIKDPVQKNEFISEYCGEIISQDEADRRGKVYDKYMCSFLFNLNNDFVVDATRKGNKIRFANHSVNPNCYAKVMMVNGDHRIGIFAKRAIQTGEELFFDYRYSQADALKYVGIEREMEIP
EZH2, sequence (O75530 2-441 partner): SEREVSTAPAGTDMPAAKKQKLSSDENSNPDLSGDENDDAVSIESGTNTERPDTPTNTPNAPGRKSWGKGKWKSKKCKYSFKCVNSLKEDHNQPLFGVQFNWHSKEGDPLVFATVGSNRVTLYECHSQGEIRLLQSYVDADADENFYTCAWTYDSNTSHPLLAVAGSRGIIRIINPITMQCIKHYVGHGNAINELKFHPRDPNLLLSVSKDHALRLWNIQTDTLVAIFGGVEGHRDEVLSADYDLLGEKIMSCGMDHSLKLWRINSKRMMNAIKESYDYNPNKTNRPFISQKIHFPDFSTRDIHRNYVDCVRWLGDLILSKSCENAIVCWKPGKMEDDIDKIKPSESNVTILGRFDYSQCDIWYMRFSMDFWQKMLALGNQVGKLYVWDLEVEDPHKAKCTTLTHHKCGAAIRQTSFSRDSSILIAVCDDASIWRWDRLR
EZH2, sequence (Q15022 2-739 partner): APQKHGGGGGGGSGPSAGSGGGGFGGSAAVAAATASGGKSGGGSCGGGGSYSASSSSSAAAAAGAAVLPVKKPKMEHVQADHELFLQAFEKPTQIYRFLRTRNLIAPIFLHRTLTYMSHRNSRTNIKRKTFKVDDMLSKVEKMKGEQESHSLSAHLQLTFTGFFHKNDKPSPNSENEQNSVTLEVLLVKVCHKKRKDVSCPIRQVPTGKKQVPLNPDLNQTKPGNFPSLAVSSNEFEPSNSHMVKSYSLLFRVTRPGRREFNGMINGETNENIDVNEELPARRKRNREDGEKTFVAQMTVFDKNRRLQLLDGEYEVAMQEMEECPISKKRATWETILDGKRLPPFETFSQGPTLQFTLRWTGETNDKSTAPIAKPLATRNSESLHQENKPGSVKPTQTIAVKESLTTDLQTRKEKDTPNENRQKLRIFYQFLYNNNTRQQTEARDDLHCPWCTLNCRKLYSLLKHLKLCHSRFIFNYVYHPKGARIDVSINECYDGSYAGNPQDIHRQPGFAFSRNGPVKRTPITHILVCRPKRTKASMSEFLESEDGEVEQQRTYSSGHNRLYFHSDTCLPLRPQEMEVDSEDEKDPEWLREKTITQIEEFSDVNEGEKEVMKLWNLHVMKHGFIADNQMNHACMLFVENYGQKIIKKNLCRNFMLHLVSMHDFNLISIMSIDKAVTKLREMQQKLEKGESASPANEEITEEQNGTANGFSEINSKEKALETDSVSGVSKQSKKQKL
EZH2, sequence (Q09028 2-425 partner): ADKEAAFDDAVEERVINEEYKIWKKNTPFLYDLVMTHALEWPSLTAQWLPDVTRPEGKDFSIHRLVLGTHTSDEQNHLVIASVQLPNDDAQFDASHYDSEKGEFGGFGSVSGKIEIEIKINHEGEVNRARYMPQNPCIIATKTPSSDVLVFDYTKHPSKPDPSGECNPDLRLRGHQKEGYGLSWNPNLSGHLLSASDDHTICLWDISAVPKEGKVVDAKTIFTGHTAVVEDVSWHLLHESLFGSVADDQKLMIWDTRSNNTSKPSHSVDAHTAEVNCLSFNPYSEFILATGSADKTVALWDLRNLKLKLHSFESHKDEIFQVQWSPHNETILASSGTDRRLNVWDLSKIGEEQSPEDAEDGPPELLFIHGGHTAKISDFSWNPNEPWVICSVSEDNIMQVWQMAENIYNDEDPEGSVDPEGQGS
EZH2, sequence (Q6ZN18 whole entry partner): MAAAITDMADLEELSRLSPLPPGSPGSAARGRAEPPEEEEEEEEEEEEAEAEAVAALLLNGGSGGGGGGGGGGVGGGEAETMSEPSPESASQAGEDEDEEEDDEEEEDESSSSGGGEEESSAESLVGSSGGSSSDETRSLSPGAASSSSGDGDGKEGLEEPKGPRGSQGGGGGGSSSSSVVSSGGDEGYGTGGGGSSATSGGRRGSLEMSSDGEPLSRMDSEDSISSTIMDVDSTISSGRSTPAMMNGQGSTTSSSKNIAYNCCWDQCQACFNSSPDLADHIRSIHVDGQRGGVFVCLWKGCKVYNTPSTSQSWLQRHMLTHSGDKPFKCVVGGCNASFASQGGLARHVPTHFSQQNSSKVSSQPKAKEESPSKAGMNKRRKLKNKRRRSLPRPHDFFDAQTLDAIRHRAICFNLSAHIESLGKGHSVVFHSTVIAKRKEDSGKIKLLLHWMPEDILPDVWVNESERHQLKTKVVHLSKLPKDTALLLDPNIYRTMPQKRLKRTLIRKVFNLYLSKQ
CYP3A4, sequence (P08684 whole entry): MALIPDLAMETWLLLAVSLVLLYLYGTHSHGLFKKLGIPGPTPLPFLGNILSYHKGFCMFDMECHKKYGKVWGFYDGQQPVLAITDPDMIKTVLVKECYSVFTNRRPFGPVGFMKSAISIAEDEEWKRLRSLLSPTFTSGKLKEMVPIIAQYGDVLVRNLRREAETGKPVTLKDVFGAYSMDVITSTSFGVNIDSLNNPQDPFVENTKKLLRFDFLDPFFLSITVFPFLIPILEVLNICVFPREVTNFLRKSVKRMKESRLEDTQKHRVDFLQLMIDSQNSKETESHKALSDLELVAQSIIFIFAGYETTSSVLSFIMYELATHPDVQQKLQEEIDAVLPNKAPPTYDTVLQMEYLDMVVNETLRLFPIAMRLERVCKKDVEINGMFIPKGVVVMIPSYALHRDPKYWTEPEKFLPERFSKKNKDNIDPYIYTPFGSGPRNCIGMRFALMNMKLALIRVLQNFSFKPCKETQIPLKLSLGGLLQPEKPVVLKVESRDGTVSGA
CYP1A2, sequence (P05177 whole entry): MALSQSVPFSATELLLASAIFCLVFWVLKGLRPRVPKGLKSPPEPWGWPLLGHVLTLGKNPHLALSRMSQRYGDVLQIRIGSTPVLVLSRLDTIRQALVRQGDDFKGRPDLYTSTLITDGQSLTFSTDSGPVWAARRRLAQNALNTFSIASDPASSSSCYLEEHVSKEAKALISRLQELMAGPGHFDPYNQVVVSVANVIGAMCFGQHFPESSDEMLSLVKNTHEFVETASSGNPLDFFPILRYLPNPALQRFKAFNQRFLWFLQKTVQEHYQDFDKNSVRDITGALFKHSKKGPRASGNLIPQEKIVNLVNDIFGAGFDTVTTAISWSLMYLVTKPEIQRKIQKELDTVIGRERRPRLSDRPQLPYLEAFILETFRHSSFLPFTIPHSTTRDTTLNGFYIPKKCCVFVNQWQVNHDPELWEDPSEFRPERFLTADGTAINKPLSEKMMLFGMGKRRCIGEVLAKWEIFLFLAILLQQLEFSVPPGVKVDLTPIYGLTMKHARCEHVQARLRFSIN
CYP2D6, sequence (P10635 whole entry): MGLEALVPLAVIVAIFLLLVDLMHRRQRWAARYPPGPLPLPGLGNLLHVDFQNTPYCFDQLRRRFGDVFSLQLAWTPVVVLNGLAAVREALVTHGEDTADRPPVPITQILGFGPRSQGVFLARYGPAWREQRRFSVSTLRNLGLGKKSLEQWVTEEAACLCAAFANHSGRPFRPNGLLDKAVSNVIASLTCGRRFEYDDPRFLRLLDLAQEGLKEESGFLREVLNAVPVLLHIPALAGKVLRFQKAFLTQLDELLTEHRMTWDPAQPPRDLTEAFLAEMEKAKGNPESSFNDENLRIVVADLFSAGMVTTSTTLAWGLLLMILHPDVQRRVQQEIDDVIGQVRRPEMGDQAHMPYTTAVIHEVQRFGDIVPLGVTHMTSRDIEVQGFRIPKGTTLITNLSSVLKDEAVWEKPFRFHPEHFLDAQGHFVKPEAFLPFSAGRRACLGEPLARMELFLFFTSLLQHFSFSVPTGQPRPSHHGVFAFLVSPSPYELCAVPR
CYP2C19, sequence (P33261 whole entry): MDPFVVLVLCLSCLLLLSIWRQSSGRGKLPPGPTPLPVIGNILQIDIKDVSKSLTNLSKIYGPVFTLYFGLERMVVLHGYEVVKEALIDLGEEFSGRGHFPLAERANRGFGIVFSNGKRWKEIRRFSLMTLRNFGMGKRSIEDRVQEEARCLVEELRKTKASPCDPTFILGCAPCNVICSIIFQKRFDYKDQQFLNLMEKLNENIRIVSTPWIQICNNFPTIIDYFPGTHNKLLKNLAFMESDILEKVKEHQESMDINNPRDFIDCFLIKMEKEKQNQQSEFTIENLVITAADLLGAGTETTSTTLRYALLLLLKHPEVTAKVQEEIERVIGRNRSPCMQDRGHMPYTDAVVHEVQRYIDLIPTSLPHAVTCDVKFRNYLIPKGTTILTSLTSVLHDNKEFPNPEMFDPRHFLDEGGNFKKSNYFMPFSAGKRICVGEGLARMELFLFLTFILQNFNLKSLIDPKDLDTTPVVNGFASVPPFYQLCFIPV

IC50 ([2]; Homo sapiens, SU-DHL-6, 336 h)	IC50 [3]	IC50 [6]	IC50 [7]	IC50 [8]	IC50 [9]	IC50 [10]	half-life [11, 12]	AUC [11, 12]	C0 [11, 12]	half-life [11, 13]	bioavailability [11, 14]	AUC [11, 13]	Cmax [11, 15]	Tmax [11, 13]	Compound	other results
–	–	–	–	–	–	–	–	–	–	–	–	–	–	–	CSc1cc(C)[nH]c(=O)c1CNC(=O)c1cc(Cl)c2c(c1C)OC(C)(C1CCN(CC3CC(F)(F)C3)CC1)O2 (single isomer, unassigned; isomer 1) [Compound 10, isomer 1, 7-chloro-2-(1-((3,3-difluorocyclobutyl)methyl)piperidin-4-yl)-2,4-dimethyl-N-((6-methyl-4-(methylthio)-2-oxo-1,2-dihydropyridin-3-yl)methyl)benzo[d][1,3]dioxole-5-carboxamide]	Conclusion on pharmacokinetics [1]: Conclusion: the compounds of the present disclosure, especially isomer 1 of compound 10 and isomer 1 of compound 34, have good pharmacokinetics with long half-life and short time to reach the highest concentration.; Curve area AUC [1]: 1097 h · ng · mL − 1; Half-life T1/2 [1]: 1.72 h; Plasma drug concentration Cmax [1]: 1238 ng/mL; Time to reach peak Tmax [1]: 0.25
33 nM	0.57 nM	–	–	–	–	–	–	–	–	–	–	–	–	–	CSc1cc(C)[nH]c(=O)c1CNC(=O)c1cc(Cl)c2c(c1C)OC(C)([C@H]1CC[C@@H](N[C@H]3C[C@H](F)C3)CC1)O2 (single isomer, unassigned) [Compound 34, isomer 1, 7-chloro-2-(4-((trans-3-fluorocyclobutyl)amino)cyclohexyl)-2,4-dimethyl-N-((6-methyl-4-(methylthio)-2-oxo-1,2-dihydropyridin-3-yl)methyl)benzo[d][1,3]dioxole-5-carboxamide]	AUC [4]: 1350 ng·h/mL; Cmax [4]: 598 ng/mL; half-life [4]: 3.37 h
–	0.44 nM	> 50000 nM	> 50000 nM	> 50000 nM	> 50000 nM	> 50000 nM	–	–	–	–	–	–	–	–	[2H]C([2H])(NC(=O)c1cc(Cl)c2c(c1C)OC(C)(C1CCC(NC3COC3)CC1)O2)c1c(SC)cc(C)[nH]c1=O (single isomer, unassigned) [Compound 59, isomer 2, 7-chloro-2,4-dimethyl-N-((6-methyl-4-(methylthio)-2-oxo-1,2-dihydropyridin-3-yl)methyl-d2)-2-(4-(oxetan-3-ylamino)cyclohexyl)benzo[d][1,3]dioxole-5-carboxamide]	IC50 [2]: 6.35 nM; AUC ([5]; IV 3 mg/kg): 1570 ± 39 ng·h/mL; C0 ([5]; IV 3 mg/kg): 2960 ± 601 ng/mL; half-life ([5]; IV 3 mg/kg): 2.68 ± 0.14 h; AUC ([5]; PO 15 mg/kg): 3310 ± 526 ng·h/mL; Cmax ([5]; PO 15 mg/kg): 2320 ± 562 ng/mL; Tmax ([5]; PO 15 mg/kg): 1 h; half-life ([5]; PO 15 mg/kg): 5.11 ± 0.32 h; bioavailability ([5]; PO 15 mg/kg vs IV 3 mg/kg): 42.1 ± 6.7%
–	–	> 50000 nM	> 50000 nM	> 50000 nM	> 50000 nM	16300 nM	6.31 h	1180 ng·h/mL	2140 ng/mL	3.05 h	9.08%	645 ng·h/mL	262 ng/mL	0.25 h	Cc1cc(C)c(CNC(=O)c2cc(Cl)c3c(c2C)O[C@@](C)([C@H]2CC[C@H](N(C)C)CC2)O3)c(=O)[nH]1 [Compound I-2, Valemetostat, reference compound]	–
24 nM	0.48 nM	–	–	–	–	–	–	574 ng·h/mL	2340 ng/mL	1.27 h	44.3%	1530 ng·h/mL	–	–	[2H]C([2H])(NC(=O)c1cc(Cl)c2c(c1C)OC(C)([C@H]1CC[C@@H](NC3CC(F)(F)C3)CC1)O2)c1c(SC)cc(C)[nH]c1=O (single isomer, unassigned) [Compound 44, isomer 1, 7-chloro-2-(4-((3,3-difluorocyclobutyl)amino)cyclohexyl)-2,4-dimethyl-N-((6-methyl-4-(methylthio)-2-oxo-1,2-dihydropyridin-3-yl)methyl-d2)benzo[d][1,3]dioxole-5-carboxamide]	T1/2 ([11]; ICR mice, IV 5 mg/kg, listed as Compound 44, Isomer 1): 0.427 h; Cmax ([11]; ICR mice, PO 30 mg/kg, listed as Compound 44, Isomer 1): 971 ng/mL
93.7 nM	0.52 nM	–	–	–	–	–	1.42 h	839 ng·h/mL	1970 ng/mL	0.934 h	52.7%	2650 ng·h/mL	865 ng/mL	2 h	[2H]C([2H])(NC(=O)c1cc(Cl)c2c(c1C)OC(C)(C1CCN(CC3CC3)CC1)O2)c1c(SC)cc(C)[nH]c1=O (stereo not drawn) [Compound 27, 7-chloro-2-(1-(cyclopropylmethyl)piperidin-4-yl)-2,4-dimethyl-N-((6-methyl-4-(methylthio)-2-oxo-1,2-dihydropyridin-3-yl)methyl-d2)benzo[d][1,3]dioxole-5-carboxamide]	–
